# Source: patent US4943566A, “Novel 17-aryl-steroids” (Roussel Uclafi, priority 1987, dated 1990)
# System: mammary Tumoral cells MCF-7
# Test: Anti-proliferative activity against the increase of mammary tumoral cells MCF-7 (ADN by DABA fluorimetry)
# Type: cell-based
# Settings: Homo sapiens, MCF7, 144 h; MCF-7 cells, SVF medium, 6 days, ADN content; read-out: CI50 in nM (concentration which inhibits by 50% the increase in the MCF 7 cells)
# Description: The cell culture line MCF-7 was maintained in culture in SVF (1) medium at 37° C. in a humid atmosphere containing 5% CO2. The cells at subconfluence were collected by trypsination (0.05% trypsine, 0.02% EDTA) then rinsed by gentle centrifiguation. A sample of the cells in suspension was counted by the Malassez cell. To study the increase, the cells resuspended in SVF medium were innoculated at a rate of 30,000 cells per well in a multiwell plate (24 wells per 2.5 cm^2) 24 hours after the innoculation (Day 0), the test compound was added to the medium in an ethanolic solution (final ethanol concentration is 0.1%) a concentration of 10^-6 M. The control wells received the same concentration of ethanol. The mediums were totally renewed at 48 hours. At the end of the experiment (Day 6), the medium was aspirated and the cells were immediately fixed by 150 μl of methanol after a dose of ADN. The anti-proliferative activity of the products was determined by the capacity to inhibit ADN increase.
# ADN is dosed by a fluorimetric method using DABA (3,5-diamino benzoic acid). 150 μl of DABA was added to each well and the plates were incubated for 45 minutes at 56° C. and then 1.5 ml of 1N hydrochloric acid was added. The fluoresence was measured with a fluorimeter (excitement length 400 nM-length of emission wave 500 nM). The amount of ADN per well was evaluated with respect to a standard scale obtained by treating under the same conditions an ADN standard of the calf thymus. The concentration in nM which inhibit by 50% the increase in the MCF 7 cells or CI50 was determined in the same manner with the results of the following Table.
# The medium for culture of calf fetal serum (SVF) was prepared as follows: MEM medium (minimal essential medium) to which was added non-essential amino acids (GIBCO), peni-strepto (penicillin 100 U/ml, streptomycine 0.1 mg/ml), 0.1% fungizone, 50 ng/ml of insulin and a 10% final concentration of calf fetal serum free of endrogenic steroids.
row,IC50 [nM],Structure (SMILES)
1,50,CN(C)c1ccc([C@H]2C[C@@]3(C)[C@@H](CC[C@@]3(O)c3ccc(O)cc3)[C@@H]3CCC4=CC(=O)CCC4=C32)cc1 [6 Product A]
2,50,CN(C)c1ccc([C@H]2C[C@]3(C)C(c4ccc(O)cc4)=CC[C@H]3[C@@H]3CCC4=CC(=O)CCC4=C32)cc1 [6 Product B]
3,800,"CN(C)c1ccc(C2=CC[C@H]3[C@@H]4CCC5=CC(=O)CCC5=C4[C@@H](c4ccc(N(C)C)cc4)C[C@]23C)cc1 [Example 3, 11β,17-bis-(4-dimethylamino-phenyl)-Δ^4,9,16-estratriene-3-one]"
4,1000,"COc1ccc(C2=CC[C@H]3[C@@H]4CCC5=CC(=O)CCC5=C4[C@@H](c4ccc(N(C)C)cc4)C[C@]23C)cc1 [Example 5, 11β-(4-dimethylamino-phenyl)-17-(4-methoxy-phenyl)-Δ^4,9,16-estratriene-3-one]"
